Results taken from PubChem BioAssay (NCI).
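Exposure lasted 48 hours, with cells grown in 96-well plates and compounds tested at five concentrations. The concentration for full growth arrest is given as TGI.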

Legend:
Assay in all cases: inhibition of tumour cell growth, NCI panel, 48 h
ACHN renal = test system: ACHN renal
EKVX NSCLC = test system: EKVX NSCLC
HCT-116 colon = test system: HCT-116 colon
K-562 leukemia = test system: K-562 leukemia
KM12 colon = test system: KM12 colon
LOX IMVI melanoma = test system: LOX IMVI melanoma
NCI-H23 lung = test system: NCI-H23 lung
OVCAR-3 ovarian = test system: OVCAR-3 ovarian
PC-3 prostate = test system: PC-3 prostate
SK-MEL-2 melanoma = test system: SK-MEL-2 melanoma
SNB-75 CNS = test system: SNB-75 CNS
SR leukemia = test system: SR leukemia
TK-10 renal = test system: TK-10 renal
UACC-257 melanoma = test system: UACC-257 melanoma

Row | SMILES | TGI (ACHN renal) | TGI (EKVX NSCLC) | TGI (HCT-116 colon) | TGI (K-562 leukemia) | TGI (KM12 colon) | TGI (LOX IMVI melanoma) | TGI (NCI-H23 lung) | TGI (OVCAR-3 ovarian) | TGI (PC-3 prostate) | TGI (SK-MEL-2 melanoma) | TGI (SNB-75 CNS) | TGI (SR leukemia) | TGI (TK-10 renal) | TGI (UACC-257 melanoma)
1 | COc1cc2cccc(N)c2cc1OC | > 100 µM | > 100 µM | > 100 µM | > 100 µM | > 100 µM | > 100 µM | > 100 µM | > 100 µM | > 100 µM | > 100 µM | > 100 µM | > 100 µM | > 72 µM | > 100 µM
2 | c1ccc(-n2nc3ccc4nonc4c3n2)cc1 | > 100 µM | > 100 µM | > 100 µM | > 100 µM | > 100 µM | > 100 µM | > 100 µM | > 100 µM | > 100 µM | > 100 µM | > 100 µM | > 100 µM | > 100 µM | > 100 µM
3 | CC(SC(=S)N1CCOCC1)C(=O)Nc1nnc(-c2ccccc2)o1 (configuration not stated) | > 100 µM | > 100 µM | > 100 µM | > 100 µM | > 100 µM | > 100 µM | > 100 µM | > 100 µM | > 100 µM | > 100 µM | > 100 µM | > 100 µM | > 100 µM | > 100 µM
4 | CCOC(=O)C(C)NC(=O)C(C)NC(=O)C(C)NC(=O)C(C)NC(=O)C(C)NC(=O)OCc1ccccc1 (configuration not stated) | > 100 µM | > 100 µM | > 100 µM | > 100 µM | > 100 µM | > 100 µM | > 100 µM | > 100 µM | > 100 µM | > 100 µM | > 100 µM | > 100 µM | > 100 µM | > 100 µM
5 | CCOC(=O)[C@@]12C[C@](/C=C/OC)(O[Si](C)(C)C)[C@@]13c1cc(OC)c(OC)cc1CCN3C(=O)C2O (some centres not stated) | > 100 µM | > 100 µM | > 100 µM | > 100 µM | > 100 µM | > 100 µM | > 100 µM | > 100 µM | > 100 µM | > 100 µM | > 100 µM | > 100 µM | > 100 µM | > 100 µM
6 | c1ccc(CNCCCCNCCCNCc2ccccc2)cc1 | 29.3 µM | 57.3 µM | 32.2 µM | 34.2 µM | 40.5 µM | 32.7 µM | 47.4 µM | 54.7 µM | 28.8 µM | > 100 µM | 49.4 µM | 56.1 µM | 77.4 µM | 32 µM
7 | Cc1ccc(Nc2c(C#N)[n+]([O-])c3cc(Cl)ccc3[n+]2[O-])cc1 | > 100 µM | > 100 µM | > 100 µM | > 100 µM | > 100 µM | > 100 µM | > 100 µM | > 42.4 µM | > 100 µM | > 100 µM | > 100 µM | > 36.3 µM | > 100 µM | > 100 µM
8 | O=c1oc2ccccc2c(O)c1/C=N/C(=S)NCCc1ccccc1 | > 85.6 µM | > 100 µM | > 100 µM | > 100 µM | > 100 µM | > 100 µM | > 88 µM | > 100 µM | > 100 µM | > 85.1 µM | > 87.5 µM | 41.7 µM | > 100 µM | > 100 µM
9 | O=C(c1ccccc1)c1ccc(-n2c3ccccc3c3ccc4c(c32)C(=O)C=CC4=O)cc1 | 11.6 µM | 26.3 µM | 16.3 µM | > 100 µM | 37.5 µM | 16.3 µM | 29.5 µM | 20.8 µM | 25.8 µM | 37.3 µM | > 58.4 µM | > 34 µM | 25.3 µM | 27.5 µM
10 | CCOc1ccc(N/C(Cl)=C(Cl)\C(=C(\Nc2ccc(OCC)cc2)n2nnc3ccccc32)[N+](=O)[O-])cc1 | 15.1 µM | 31.3 µM | 5.29 µM | > 21.6 µM | > 57.6 µM | 3.96 µM | 22.3 µM | 20.3 µM | 21.6 µM | 35.5 µM | 42.5 µM | 5.26 µM | 17.1 µM | 28.6 µM
11 | Cc1cc(S(=O)(=O)Nc2cc(N)[nH]n2)c(SCc2nc(N)nc(N(C)C)n2)cc1Cl | > 10 µM | > 10 µM | > 10 µM | > 10 µM | > 10 µM | > 10 µM | > 10 µM | > 10 µM | > 10 µM | > 10 µM | > 10 µM | > 10 µM | > 10 µM | > 10 µM
12 | NCCN1C(=O)CN=C(c2ccc(Cl)cc2)c2cc(Cl)ccc21 | 33 µM | 84.5 µM | 30.1 µM | 34.8 µM | 31.3 µM | 32.4 µM | 37.1 µM | 29.3 µM | 30.1 µM | 31.8 µM | 30.7 µM | 40.7 µM | 30.5 µM | 34.9 µM
13 | CO/N=C(\C(=O)N(C)n1cnnc1)c1csc(NC(c2ccccc2)(c2ccccc2)c2ccccc2)n1 | > 10 µM | > 10 µM | > 10 µM | > 10 µM | > 10 µM | > 10 µM | > 10 µM | > 10 µM | > 10 µM | > 10 µM | > 10 µM | > 10 µM | > 10 µM | > 10 µM
